One compound from patent US20190345478A1, “T[…] AND SYSTEMS FOR DIAGNOSIS AND TREATMENT OF MALARIA” (WILLIAM MARSH RICE UNIVERSITY, priority 2012, published 2019) can be followed below.

The structures appear in SMILES notation.

This assay has as its system Plasmodium falciparum (strain 3D7). Briefly: Parasiticidal effect: level of parasitemia (percentage of MIRBCs) after bulk flow treatment of P. falciparum-infected human RBCs. It is filed as cell-based. Particulars: chloroquine 1 μM added immediately prior to flow treatment; PTNB mode 70 ps laser pulse; level of MIRBCs at 24 hours; FIG. 12c.

As for `CCN(CC)CCCC(C)Nc1ccnc2cc(Cl)ccc12` (stereo not shown) [chloroquine], the “parasiticidal efficacy of PTNB mode compared with chloroquine” value is listed as “three-fold higher parasiticidal efficacy than chloroquine”.
